Results as given in ChEMBL document CHEMBL2434821, “New phenstatin-fatty acid conjugates: synthesis and evaluation” (Bioorg Med Chem Lett, 2013).

Test: Cytotoxicity against human KB-3-1 cells assessed as cell survival at 0.5 uM after 72 hrs by MTT assay relative to control
Conditions: KB 3-1, 72 h

## CCCCC/C=C\C/C=C\CCCCCCCC(=O)Oc1cc(C(=O)c2cc(OC)c(OC)c(OC)c2)ccc1OC
  cell survival at 0.5 µM: 20%
